One may read the IC50 as the concentration that gives 50% inhibition.

The values below come from US20250346597A1, “CONDENSED HETEROCYCLIC COMPOUNDS AS INHIBITOR OF DIACYLGLYCEROL KINASES” (BEONE MEDICINES I GMBH, priority 2023, published 2025).

The target in one test is DGKζ (Homo sapiens (Human), UniProt Q13574). Briefly: Biochemical DGK IC50 assay (ADP-Glo, lipid micelle substrate), DGKζ. To be noted: full length DGKζ 0.5 nM, ATP 140 μM, DAG 80 μM. On the procedure: (§1) Enzymatic reactions of DGKζ, DGKα and DGKδ were performed using ADP-Glo assay with lipid micelle substrate. […] Full length DGKα (D21-10BG, SignalChem) and full length DGKδ (D23-10G, SignalChem) were purchased. Lipid micelle was prepared by dissolving DAG (Sigma, 317505-10MG) and PS (Sigma, P7769-100MG) with chloroform which was furtherly removed by rotary evaporation. The resulted product was resuspended in buffer containing 25 mM HEPES pH 7.0, 0.5 mM EDTA and 160 mM Octyl P-D glucopyranoside by vigorous mixing and ultrasonic (IID, Scientz).
(§2) The inhibition activities testing for the compound disclosed herein were carried out at room temperature in assay buffer containing 50 mM HEPES, 10 mM MgCl2, 0.01% BSA, 0.1 mM Na3VO4, 0.005% Tween-20 and 0.01 mM CaCl2. Compounds in DMSO were dispensed into wells of a black 384 well plate (Corning 4514) using D300e digital dispenser (Tecan). […] 3 μL 2× enzyme solution was added to wells. […] After 1 hour reaction, 5 μL ADP-Glo reagent (Promga V9101) was added and incubated for 40 minutes. 10 μL Kinase Detection reagent was added and incubated for 30 minutes. Luminescence was measured on a microplate reader (PHERAstar FSX, BMG labtech). The IC50s are calculated based on inhibition of enzyme activity in the presence of increasing concentrations of compounds.
Human His-TEV-DGK-zeta-pFastBac1 and human baculovirus samples was generated using the Bac-to-Bac baculovirus expression system (Invitrogen) according to the manufacturer's protocol. The DNA used for expression of DGK-zeta, have SEQ ID Nos: 1. Baculovirus amplification was achieved using infected SF9 cells at 1:2000 virus/cells ratios, and grown for 96 hours at 27° C. post-transfected.
The expression scaled up for each protein was carried out in the […] from CORNING. 4 L of 3×10^6 cells/mL Sf9 cells (Expression System, Invitrogen) grown in SF900™ II SFM insect medium (Expression System) was infected with virus stock at 1:200 virus/cells ratio, and grown for 48 hours at 27° C. post-transfection. The infected cell culture was harvested by centrifugation at 6000 rpm for 15 min 4° C. in a SORVALL LYNX6000 centrifuge. The cell pellets were stored at −80° C.
Full length human DGKζ produced as described above, was purified from Sf9 baculovirus-infected insect cell paste. The cells were lysed using sonication method, and the lysates were clarified by centrifugation.
A general note: ADP-Glo first removes unused ATP, then detects ADP through luciferase.

The target of another test is DGKα (Homo sapiens (Human), UniProt P23743). Briefly: Biochemical DGK IC50 assay (ADP-Glo, lipid micelle substrate), DGKα. Note: full length DGKα 7.5 nM. The conditions noted are these: full length DGKα […], ATP 140 μM, DAG 80 μM. Here is the method:
as §1, §2

Chain of DGKζ (Q13574 other isoform, or with tags, fused parts or gaps): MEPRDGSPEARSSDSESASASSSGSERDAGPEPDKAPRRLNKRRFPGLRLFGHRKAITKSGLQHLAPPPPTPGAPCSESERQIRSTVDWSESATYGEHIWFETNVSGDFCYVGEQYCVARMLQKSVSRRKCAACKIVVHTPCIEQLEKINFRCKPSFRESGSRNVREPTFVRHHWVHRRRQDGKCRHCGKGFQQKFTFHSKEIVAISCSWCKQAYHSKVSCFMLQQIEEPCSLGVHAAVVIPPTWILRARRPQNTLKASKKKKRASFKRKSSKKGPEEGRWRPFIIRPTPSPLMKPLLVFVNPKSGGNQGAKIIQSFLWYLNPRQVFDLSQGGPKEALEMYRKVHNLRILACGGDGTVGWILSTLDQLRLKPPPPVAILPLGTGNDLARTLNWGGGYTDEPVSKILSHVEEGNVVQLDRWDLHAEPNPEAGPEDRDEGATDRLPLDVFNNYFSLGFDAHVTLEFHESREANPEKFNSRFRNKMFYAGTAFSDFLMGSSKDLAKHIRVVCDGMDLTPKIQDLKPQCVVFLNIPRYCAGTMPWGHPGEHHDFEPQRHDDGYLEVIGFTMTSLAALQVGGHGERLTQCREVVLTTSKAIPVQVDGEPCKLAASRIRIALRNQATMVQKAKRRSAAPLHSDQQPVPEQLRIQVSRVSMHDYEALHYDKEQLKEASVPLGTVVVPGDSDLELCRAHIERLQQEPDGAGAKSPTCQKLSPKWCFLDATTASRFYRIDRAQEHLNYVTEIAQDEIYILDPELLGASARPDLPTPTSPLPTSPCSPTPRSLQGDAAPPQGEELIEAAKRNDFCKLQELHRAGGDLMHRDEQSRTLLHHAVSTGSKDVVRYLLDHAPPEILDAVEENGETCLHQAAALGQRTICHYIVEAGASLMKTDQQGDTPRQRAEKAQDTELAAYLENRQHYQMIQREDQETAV
Chain of DGKα (P23743 whole entry): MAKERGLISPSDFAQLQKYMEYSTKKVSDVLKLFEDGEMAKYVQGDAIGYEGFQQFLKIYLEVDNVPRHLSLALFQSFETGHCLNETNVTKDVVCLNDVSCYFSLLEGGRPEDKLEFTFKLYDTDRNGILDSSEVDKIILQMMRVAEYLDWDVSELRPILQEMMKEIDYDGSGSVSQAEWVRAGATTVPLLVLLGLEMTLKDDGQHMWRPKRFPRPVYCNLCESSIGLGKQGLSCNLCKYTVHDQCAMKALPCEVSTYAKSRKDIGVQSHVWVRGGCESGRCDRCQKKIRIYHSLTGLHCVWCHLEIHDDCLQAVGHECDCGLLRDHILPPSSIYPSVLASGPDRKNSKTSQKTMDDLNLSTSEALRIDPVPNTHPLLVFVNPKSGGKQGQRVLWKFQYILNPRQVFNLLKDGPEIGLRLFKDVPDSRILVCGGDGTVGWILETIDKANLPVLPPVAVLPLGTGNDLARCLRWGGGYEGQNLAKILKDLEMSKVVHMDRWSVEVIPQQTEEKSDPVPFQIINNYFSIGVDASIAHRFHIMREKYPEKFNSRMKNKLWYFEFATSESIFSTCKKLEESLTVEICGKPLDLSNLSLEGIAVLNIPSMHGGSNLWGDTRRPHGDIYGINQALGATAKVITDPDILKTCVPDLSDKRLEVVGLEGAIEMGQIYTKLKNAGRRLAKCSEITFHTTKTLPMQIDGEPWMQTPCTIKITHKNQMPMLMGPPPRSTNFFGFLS

For `CC[C@H]1CN(C(C)c2ccc(CN(C)C)cc2)[C@H](CC)CN1c1cc(=O)n(C)c2cn(CC#N)nc12` (stereo partly drawn) [Compound A28, 2-(7-((2S,5R)-4-(1-(4-((dimethylamino)methyl)phenyl)ethyl)-2,5-diethylpiperazin-1-yl)-4-methyl-5-oxo-4,5-dihydro-2H-pyrazolo[4,3-b]pyridin-2-yl)acetonitrile], the values for the concentration for half-maximal inhibition (IC50) at DGKζ and against DGKα were 4830 nM and 10000 nM, respectively.
On to `CC[C@H]1CN(C(C)c2ccc3cc(C(F)F)sc3n2)[C@H](CC)CN1c1nc(=O)n(C)c2cn(CC#N)nc12` (single isomer, unassigned) [Compound A148b], for which the IC50 is 45 nM on DGKζ and 36 nM at DGKα.
`CC[C@H]1CN(C(C)c2ccc3c(c2)CCC3)[C@H](CC)CN1c1cc(=O)n(C)c2cn(CC#N)nc12` (stereo partly drawn) [Compound A65, 2-(7-((2S,5R)-4-(1-(2,3-dihydro-1H-inden-5-yl)ethyl)-2,5-diethylpiperazin-1-yl)-4-methyl-5-oxo-4,5-dihydro-2H-pyrazolo[4,3-b]pyridin-2-yl)acetonitrile]: the half-maximal inhibitory concentration (IC50) on DGKζ amounted to 66 nM; at DGKα, 295 nM.
For `CC[C@H]1CN(C(C)c2ccc3c(c2F)OC(C)(C)O3)[C@H](CC)CN1c1cc(=O)n(C)c2cn(CC#N)nc12` (stereo partly drawn) [Compound A71, 2-(7-((2S,5R)-2,5-diethyl-4-(1-(4-fluoro-2,2-dimethylbenzo[d][1,3]dioxol-5-yl)ethyl)piperazin-1-yl)-4-methyl-5-oxo-4,5-dihydro-2H-pyrazolo[4,3-b]pyridin-2-yl)acetonitrile], the half-inhibitory concentration (IC50) was 4 nM against DGKζ and 1830 nM at DGKα.
Consider `CC[C@H]1CN(C(C)c2ccc(OC)cc2)[C@H](CC)CN1c1cc(=O)n(C)c2cn(CC#N)nc12` (single isomer, unassigned) [Compound A34a], for which the IC50 is 75 nM on DGKζ and 37 nM against DGKα.
With `CC[C@H]1CN(C(C)c2ccc(C3CC3)nc2)[C@H](CC)CN1c1cc(=O)n(C)c2cn(CC#N)nc12` (single isomer, unassigned) [Compound A38b], the IC50 stood at 1180 nM at DGKζ and 2350 nM on DGKα.
Consider `CC[C@H]1CN(C(C)c2ccn3nc(C)c(C)c3n2)[C@H](CC)CN1c1cc(=O)n(C)c2cn(CC#N)nc12` (single isomer, unassigned) [Compound A156b], for which the IC50 on DGKζ amounted to 23 nM; on DGKα, 310 nM.
As for `CC[C@H]1CN(C(C)c2ccc(C(C)(F)F)nc2)[C@H](CC)CN1c1cc(=O)n(C)c2cn(CC#N)nc12` (stereo partly drawn) [Compound A199, 2-(7-((2S,5R)-4-(1-(6-(1,1-difluoroethyl)pyridin-3-yl)ethyl)-2,5-diethylpiperazin-1-yl)-4-methyl-5-oxo-4,5-dihydro-2H-pyrazolo[4,3-b]pyridin-2-yl)acetonitrile], the IC50 is 112 nM against DGKζ and 2170 nM against DGKα.
With `CC[C@H]1CN(C(C)c2ccn3nc(C)cc3n2)[C@H](CC)CN1c1cc(=O)n(C)c2cn(CC#N)nc12` (single isomer, unassigned) [Compound A152b], the values for the 50% inhibitory concentration (IC50) against DGKζ and on DGKα were 65.5 nM and 45 nM, respectively.
Take `CC[C@H]1CN(C(C)c2ccc3ncc(F)n3n2)[C@H](CC)CN1c1cc(=O)n(C)c2cn(CC#N)nc12` (single isomer, unassigned) [Compound A168b]: the IC50 at DGKζ was 69 nM; at DGKα, 54 nM.
For `CC[C@H]1CN(C(C)c2ccc3cc(C(F)F)sc3n2)[C@H](CC)CN1c1cc(=O)n(C)c2cn(CC#N)nc12` (single isomer, unassigned) [Compound A144b] the same measures were 135 nM and 18 nM.
Turning to `CC[C@H]1CN(C(C)c2ccc(C(C)C)cc2)[C@H](CC)CN1c1cc(=O)n(C)c2cn(CC#N)nc12` (stereo partly drawn) [Compound A31, 2-(7-((2S,5R)-2,5-diethyl-4-(1-(4-isopropylphenyl)ethyl)piperazin-1-yl)-4-methyl-5-oxo-4,5-dihydro-2H-pyrazolo[4,3-b]pyridin-2-yl)acetonitrile], the results for the IC50 against DGKζ and against DGKα were 213 nM and 615 nM, respectively.
On the same counts, the results for `[2H]C([2H])([2H])C(c1ccc2nc(C)sc2n1)N1C[C@H](CC)N(c2cc(=O)n(C([2H])([2H])[2H])c3cn(CC#N)nc23)C[C@H]1CC` (single isomer, unassigned) [Compound A142a] are 1350 nM and 1580 nM.
On the same counts, the results for `CC#CCn1cc2c(n1)c(N1C[C@@H](CC)N(C(C)c3ccc4nc(C)sc4c3)C[C@@H]1CC)cc(=O)n2C` (single isomer, unassigned) [Compound A114b] are 3200 nM and 391 nM.
Regarding `CC[C@H]1CN(C(C)c2ccc3scnc3c2F)[C@H](CC)CN1c1cc(=O)n(C)c2cn(CC#N)nc12` (single isomer, unassigned) [Compound A110a], the IC50 on DGKζ is 31 nM; against DGKα, 469 nM.
`CC[C@@H]1CN(c2cc(=O)n(C)c3cn(CC#N)nc23)[C@@H](C)CN1C(C)c1ccc2ncsc2n1` (single isomer, unassigned) [Compound A100a]: the half-maximal inhibitory concentration (IC50) was determined as 46 nM at DGKζ and 85 nM against DGKα.
On to `[2H]C([2H])([2H])C(c1ccc2nc(C)sc2n1)N1C[C@H](CC)N(c2cc(=O)n(C([2H])([2H])[2H])c3cn(CC#N)nc23)C[C@H]1CC` (single isomer, unassigned) [Compound A142b], for which the IC50 against DGKζ was 20 nM; on DGKα, 108 nM.
Consider `CC#CCn1cc2c(n1)c(N1C[C@@H](CC)N(C(C)c3ccc(C4CC4)nc3)C[C@@H]1CC)cc(=O)n2C` (single isomer, unassigned) [Compound A39b], for which the results for the IC50 at DGKζ and against DGKα were 2360 nM and 237 nM, respectively.
On to `CC[C@H]1CN(C(C)c2ccc3nc(C)cn3n2)[C@H](CC)CN1c1nc(=O)n(C)c2cn(CC#N)nc12` (single isomer, unassigned) [Compound A150b], for which the concentration for half-maximal inhibition (IC50) on DGKζ is 267 nM; against DGKα, 124 nM.
With `CC#CCn1cc2c(n1)c(N1C[C@@H](CC)N(C(C)c3nc4ccccc4nc3C)C[C@@H]1C)cc(=O)n2C` (single isomer, unassigned) [Compound A111b], the IC50 stood at 55 nM against DGKζ and 1250 nM against DGKα.
On to `CC[C@H]1CN(C(C)c2ccc(OC)cn2)[C@H](CC)CN1c1cc(=O)n(C)c2cn(CC#N)nc12` (stereo partly drawn) [Compound A59, 2-(7-((2S,5R)-2,5-diethyl-4-(1-(5-methoxypyridin-2-yl)ethyl)piperazin-1-yl)-4methyl-5-oxo-4,5-dihydro-2H-pyrazolo[4,3-b]pyridin-2-yl)acetonitrile], for which the IC50 against DGKζ is 536 nM; on DGKα, 137 nM.
For `CC[C@H]1CN(C(C)c2ccc(C(C)(F)F)cc2)[C@H](CC)CN1c1cc(=O)n(C)c2cn(CC#N)nc12` (stereo partly drawn) [Compound A10, 2-(7-((2S,5R)-4-(1-(4-(1,1-difluoroethyl)phenyl)ethyl)-2,5-diethylpiperazin-1-yl)-4-methyl-5-oxo-4,5-dihydro-2H-pyrazolo[4,3-b]pyridin-2-yl)acetonitrile], the values for the IC50 against DGKζ and at DGKα were 104 nM and 162 nM, respectively.
For the compound `CC[C@H]1CN(C(C)c2ccc3cnncc3c2)[C@H](CC)CN1c1cc(=O)n(C)c2cn(CC#N)nc12` (single isomer, unassigned) [Compound A186a], the figures for the 50% inhibitory concentration (IC50) against DGKζ and at DGKα were 841 nM and 53 nM, respectively.
On the same counts, the results for `CC[C@H]1CN(C(C)c2ccn3ncc(C)c3n2)[C@H](CC)CN1c1cc(=O)n(C)c2cn(CC#N)nc12` (single isomer, unassigned) [Compound A151a] are 4610 nM and 7320 nM.
